Assay results from publication PMC11577759, “The structure of lipopeptides impacts their antiviral activity and mode of action against SARS-CoV-2 in vitro” (Applied and Environmental Microbiology, 2024).
In brackets after ≈: the same amount, converted by molar mass. Entries after “also recorded” stand apart in the source; their conditions may differ. Where two headings read alike, the source gives them in different places. Starred links: 1 amine or outer side, 2 acyl side, 3 side chain; linkers in the order of their positions; H or OH if unused. Positions of bridges follow the written chain, without caps; N, C: chain ends. Non-standard residues stand in square brackets, D forms with d. Residues, ends and D or L forms follow the SMILES beside them. *: point of attachment. X1 = CC(C)CCCCCCCCC[C@H](CC(=O)[*:1])O[*:2]; d(aThr) = C[C@@H](O)[C@@H](N)C(=O)O; X2 = CCCCCCCCCCCC(O)CC(=O)*

Experiments:
[1] = Cytotoxicity, CyQUANT XTT cell viability assay; assay type: cell-based, Chlorocebus sp.; conditions: Chlorocebus sp. (African green monkey), Vero E6 cells; for IC50 at 72 h: Vero E6 cells (kidney epithelial cells), XTT, mean (standard deviation), fengycin and caspofungin determined at higher concentrations in a subsequent experiment, read-out: IC50 (half maximal inhibitory concentration, cytotoxicity); for viability at 72 h: surfactin 35, WLIP 20, fengycin 50, caspofungin 100 µg/mL, Vero E6 (Fig. 5)
Method: (§1) Chlorocebus sp. kidney epithelial cells (Vero E6; ATCC VERO C1008) were cultured in Dulbecco’s Modified Eagle medium (DMEM) High Glucose w/ Stable Glutamine w/ Sodium Pyruvate (VWR, USA) supplemented with 2% (vol/vol) of decomplemented fetal bovine serum (FBS, Biowest, France) and 1% (vol/vol) Penicillin-Streptomycin (VWR, USA). The cells were grown at 37°C in a humidified 5% CO2 atmosphere. Cells were routinely passaged when they reached 100% confluence and were passaged until passage 15.
(§2) The cytotoxic activity of the lipopeptides was assessed using a CyQUANT XTT Cell Viability Assay (Thermo Fisher Scientific) according to the manufacturer’s instructions. […] The cells were then incubated for 72 h at 37°C. The kit was then used following the manufacturer’s instructions, and the plates were read at 450 nm and 660 nm using a Multiskan GO Microplate Spectrophotometer (Thermo Fisher Scientific). The percentage of viable cells was calculated as (AT450 − AT660 − AB450) / (AC450 − AC660) × 100%, where AT450, AT660, AB450, AC450, and AC660 represent the absorbance of the tested well at 450 nm, of the tested well at 660 nm, of the blank (only medium) at 450 nm, of the control cells at 450 nm, and of the control cells at 660 nm, respectively. One hundred percent viability corresponds to the viability of uninfected cells. DMSO concentrations ranging from 0.5% (vol/vol) to 0.001% (vol/vol) were used as a negative control for the assay. Every sample was tested in triplicate.

[2] = system: SARS-CoV-2; experiment: Replication / antiviral assay, viral RNA in supernatant by RT-qPCR; assay type: cell-based; conditions: for EC50 / EC50 (half maximal effective concentration): mean (standard deviation); for EC50: read-out: EC50 (half maximal effective concentration); for Viral RNA concentration per milliliter: surfactin 35, WLIP 20, caspofungin 100 µg/mL; for Reduction of viral RNA concentration / Reduction in viral RNA: surfactin 35, WLIP 20, fengycin 50, caspofungin 100 µg/mL; for Reduction in viral RNA: 72 h (Fig. 5)
[3] = system: Vero E6 cells; experiment: Cytotoxicity, CyQUANT XTT cell viability assay; assay type: cell-based, Chlorocebus sp.; conditions: for Cytotoxicity: concentrations up to 100 µg/mL, Vero E6, 72 h; for IC50 (half maximal inhibitory concentration, cytotoxicity): Vero E6 cells, 72 h, XTT, mean (standard deviation), fengycin and caspofungin determined at higher concentrations in a subsequent experiment
Method: as §1, §2

[4] = system: SARS-CoV-2; experiment: Binding inhibition: pre-treatment of SARS-CoV-2 and incubation on cells; assay type: cell-based; conditions: virus pre-treated, surfactin 35, WLIP 20, fengycin 50, caspofungin 100 µg/mL
[5] = system: SARS-CoV-2; assay type: cell-based; conditions: cells pre-treated, surfactin 35, WLIP 20, fengycin 50, caspofungin 100 µg/mL
[6] = system: SARS-CoV-2; conditions: surfactin 35, WLIP 20, fengycin 50, caspofungin 100 µg/mL; 100% = untreated infected cells at 37°C
Method: To determine the impact of lipopeptides on the fusion step, intracellular viral RNA was quantified after infection of cells with SARS-CoV-2 but before the budding step. […] The cells were pre-chilled for 15 min on ice. The cells were infected with SARS-CoV-2 (MOI of 10) in DMEM + 2% FBS and incubated for 2 h on ice with gentle agitation. The inoculum was removed, and the cells were gently washed three times with ice-cold DPBS. The positive control was inactivated to determine the basal viral RNA concentration after binding of the virus. The lipopeptides were added to room temperature DMEM + 2% (vol/vol) FBS and incubated at 37°C for 7 h. […] The cells were rinsed with DPBS, and the wells were dried. The samples were inactivated for 30 min at 70°C before quantification of the viral RNA by RT-qPCR. Every sample was tested in triplicate.

[7] = system: Vero cells; design: method as in earlier work; conditions: ref 38 (Shekunov et al.); cited from earlier work
[8] = system: SARS-CoV-2; experiment: Budding inhibition assay; assay type: cell-based; conditions: 10 h pi, surfactin 35 µg/mL
Method: Fresh medium was added to the cells, and the plates were incubated for 5 h at 37°C. The supernatant was discarded, and lipopeptides were added to the cells. A sample of cell supernatant was taken every hour for 4 h. After infection, the control was kept at 4°C to inhibit the release of virions, and act as a positive control of the experiment. […] Every sample was tested in triplicate.

[9] = system: SARS-CoV-2; design: method as in doi:10.3390/applmicrobiol2030052; conditions: 1 mg/mL, Vero E6 cells; cited from earlier work
[10] = system: SARS-CoV-2; experiment: Direct antiviral assay by viral titration (TCID50); conditions: 1 h incubation with virus, vs virus alone
[11] = 100 µg/mL, 72 h pi, compared to untreated infected cells
[12] = 24 h pi, serum diluted five times
[13] = 72 h pi, serum diluted five times, […]
[14] = Severe acute respiratory syndrome coronavirus 2, Vero C1008, 72 h, […]
[15] = SARS-CoV-2 MOI 0.01, Vero E6, viral RNA at 72 h pi by RT-qPCR

Row | Compound | IC50 at 72 h [1] [µg/mL] | Maximal RNA reduction at 100 µg/mL [2, 11] | viability at 72 h [1] [%] | Cytotoxicity [3] | Maximal RNA reduction at 100 µg/mL [2] | Viral RNA concentration per milliliter [2, 12] | Viral RNA concentration per milliliter ([2]; 72 h pi) | Reduction of viral RNA concentration [2, 13] [log] | EC50 [2, 14] [µg/mL] | Reduction in viral RNA [2] [log] | Binding percentage of SARS-CoV-2 to cells [4] | Binding percentage of SARS-CoV-2 to cells [5] [%] | Fusion percentage [6] [%] | IC50 [7] [µg/mL] | IC50 (half maximal inhibitory concentration, cytotoxicity) [3] | EC50 (half maximal effective concentration) [2, 15] | also measured
1 | CCC(=O)CCCCC[C@@H]1NC(=O)[C@H]2CCCCN2C(=O)[C@H]([C@@H](C)CC)NC(=O)[C@H](Cc2cn(OC)c3ccccc23)NC1=O [Apicidin] | 0.7 (≈ 1.12 µM) | 3.7-log |  |  |  |  |  |  |  |  |  |  |  |  |  |  | EC50 ([2]; Severe acute respiratory syndrome coronavirus 2, Vero C1008, SARS-CoV-2 MOI 0.01, Vero E6, viral RNA at 72 h pi by RT-qPCR): 25.2 µg/mL (≈ 40.4 µM)
2 | CC[C@H](C)C[C@H](C)CCCCCCCCC(=O)N[C@H]1C[C@@H](O)[C@@H](NCCN)NC(=O)[C@@H]2[C@@H](O)CCN2C(=O)[C@H]([C@H](O)CCN)NC(=O)[C@H]([C@H](O)[C@@H](O)c2ccc(O)cc2)NC(=O)[C@@H]2C[C@@H](O)CN2C(=O)[C@H]([C@@H](C)O)NC1=O [Caspofungin, reference compound] | 129 (≈ 118 µM) |  | 96.9 | did not cause any cytotoxicity; also recorded: without any apparent cytotoxicity | 3.7-log | 7.9 × 10^2 RNA concentration per milliliter | 1.8 × 10^4 RNA concentration per milliliter | 2.1 | 140 (≈ 128 µM) | 2.4 | did not show any effect on the binding percentage | 81 | 51.4 |  |  |  | Maximal RNA reduction at 100 µg/mL ([2]; listed as caspofungin): 3.7 log
3 | CCCCCCCCCC(=O)N[C@@H](Cc1c[nH]c2ccccc12)C(=O)N[C@H](CC(N)=O)C(=O)N[C@@H](CC(=O)O)C(=O)N[C@@H]1C(=O)NCC(=O)N[C@@H](CCCN)C(=O)N[C@@H](CC(=O)O)C(=O)N[C@H](C)C(=O)N[C@@H](CC(=O)O)C(=O)NCC(=O)N[C@H](CO)C(=O)N[C@@H]([C@H](C)CC(=O)O)C(=O)N[C@@H](CC(=O)c2ccccc2N)C(=O)O[C@@H]1C [Daptomycin, reference compound] | > 100 |  |  | did not cause any cytotoxicity | 0.3-log |  |  |  | > 100 |  |  |  |  | 0.7 (≈ 0.432 µM) |  |  | Maximal RNA reduction at 100 µg/mL ([2]; listed as daptomycin): no effect
4 | CCCCCCCCCCCC(O)CC(=O)N[C@@H](CC(C)C)C(=O)N[C@H](CCC(=O)O)C(=O)N[C@H]1C(=O)N[C@H](C(C)C)C(=O)N[C@@H](CC(C)C)C(=O)N[C@H](CO)C(=O)N[C@@H](CC(C)C)C(=O)N[C@@H](CC(C)C)C(=O)N[C@H](CO)C(=O)N[C@@H](C(C)C)C(=O)O[C@@H]1C (some centres unmarked) [Orfamide B] (X2-L[dE][d(aThr)][dV]L[dS]LL[dS]V; ester 3-C) |  | 6.3-log |  |  |  |  |  |  |  |  |  |  |  |  | 14.6 (0.4) µg/mL | 12.8 (4.1) µg/mL | Maximal RNA reduction at 100 µg/mL ([2]; 100 µg/mL, 72 h pi, compared to untreated infected cells, listed as orfamide B): 6.3 log
5 | CC(C)CCCCCCCCC[C@@H]1CC(=O)N[C@@H](CCC(=O)O)C(=O)N[C@@H](CC(C)C)C(=O)N[C@H](CC(C)C)C(=O)N[C@@H](C(C)C)C(=O)N[C@@H](CC(=O)O)C(=O)N[C@H](CC(C)C)C(=O)N[C@@H](CC(C)C)C(=O)O1 [Surfactin] (EL[dL]VD[dL]L; linker N-C via X1) | 51.5 (≈ 49.7 µM) |  | 98.5 |  | 6.3-log | 2.5 × 10^2 RNA concentration per milliliter | 5.7 × 10^1 RNA concentration per milliliter | 4.6 | 50 (≈ 48.2 µM) | 2.9 | 34.7% | 10.0 | 10.4 | 0.6 (≈ 0.579 µM) |  |  | viability at 72 h, 45 µg/mL ([1]; 45 µg/mL): ~0%; Viral RNA ([2]; 45 µg/mL): no viral RNA was detected; SARS-CoV-2 RNA concentration ([2]; 100 µg/mL, at every timepoint (24, 48, 72 h)): non-detectable levels; Reduction of viral RNA concentration ([2]; 24 h pi, serum diluted five times, […]): 1.1 log; Maximal RNA reduction at 100 µg/mL ([2]; listed as surfactin): 6.3 log; Reduction of RNA concentration (budding) [8]: 1 log; RNA concentration per milliliter in supernatant (budding) ([8]; infected cells without treatment 8646.9): 858.7 RNA concentration per milliliter; SARS-CoV-2 infectivity [9]: able to reduce SARS-CoV-2 infectivity; Reduction in viral titer (direct effect) ([10]; 100 µg/mL): 1.6 log; Reduction in viral titer (direct effect) ([10]; surfactin 35, WLIP 20, fengycin 50, caspofungin 100 µg/mL, serum diluted five times): did not directly inactivate SARS-CoV-2
6 | Colistin (polymyxin E) [reference compound] |  | 0.2-log |  | did not cause any cytotoxicity |  |  |  |  |  |  |  |  |  |  | >100.0 µg/mL | >100.0 µg/mL | Maximal RNA reduction at 100 µg/mL ([2]; 100 µg/mL, 72 h pi, compared to untreated infected cells, listed as colistin): no activity up to 100 µg/mL
